{"source": "paper PMC8330100", "about": "“Similarities and differences in the localization, trafficking, and function of P-glycoprotein in MDR1-EGFP-transduced rat versus human brain capillary endothelial cell lines” (Fluids and Barriers of the CNS, 2021)", "key": {"[1]": {"molecular_target": "T1, Pgp in RBE4-MDR1-EGFP cells (Homo sapiens, UniProt P08183)", "T1 construct": "expressed in transfected cells; host or cells: RBE4 (rat BCEC line), lentiviral transduction, doxycycline-inducible", "assay": "Rhodamine 123 uptake/accumulation assay, RBE4-MDR1-EGFP cells", "format": "cell-based, rat", "details": "RBE4-MDR1-EGFP in the presence of doxycycline; tariquidar 0.5 µM", "protocol": "Piet Borst (The Netherlands Cancer Institute, Amsterdam, The Netherlands) as template. The linker sequence in the vector fusing EGFP and MDR1 consists of 36 bp ([…]). hCMEC/D3-WT, RBE4-WT, and hCMEC/D3-MDR1-EGFP cell lines were cultivated as previously described. The same culture conditions were used for the newly prepared RBE4-MDR1-EGFP cell line. As described previously, hydrocortisone (1.4 µM) was added to the culture medium to enhance the expression and functionality of Pgp and transendothelial resistance. All endothelial cell lines were grown on rat-tail collagen I (60 µg/mL, Gibco) coated 100 mm cultures dishes or permeable membrane supports at 37 °C and 5% CO2. Pgp-EGFP protein expression in MDR1-EGFP transduced cells was induced by cell cultivation in medium containing […] doxycycline. Expression of Pgp-EGFP was regularly verified by observing the cells with an inverted fluorescence microscope. Doxycycline supplementation of the medium was maintained during the whole culturing period of Pgp-EGFP expressing cells. For experiments, hCMEC/D3 and RBE4 cells were seeded in a density of 50,000 cells/cm^2. Immortalized MDR1 transfected porcine kidney LLC-PK1 (LLC-MDR1) cells, which were used as a reference standard for vectorial transport experiments, were kindly provided by Prof. Piet Borst. […]"}, "[2]": {"system": "Pgp in primary rBCEC monolayers", "assay": "Concentration equilibrium transport assay (CETA), primary rBCEC monolayers", "format": "in vitro ADME, rat", "details": "Rho123 2 µM; primary rBCECs", "protocol": "For these experiments, a concentration equilibrium transport assay (CETA) was used, which is more sensitive to identify Pgp substrates than conventional bidirectional (concentration gradient) transport assays. In the CETA, the drug is added to both (apical and basolateral) sides of the monolayer, so that the initial drug concentration is the same in both compartments, thereby minimizing the effect of passive diffusion across the cell monolayer.\nAdditionally, vectorial drug transport across RBE4-MDR1-EGFP, hCMEC/D3-MDR1-EGFP, LLC-MDR1, and primary rBCEC monolayers was studied using 2 µM Rho123 as a fluorescent Pgp substrate essentially following the same protocol as described for [^3H]dLop. Transport was measured using a FLUOstar OPTIMA fluorescence reader (ex.: 485 nm, em.: 520 nm; BMG Labtech), analyzing samples from basolateral and apical compartments collected at the various time points."}}, "data": [{"compound": "COC(=O)c1ccccc1-c1c2ccc(=N)cc-2oc2cc(N)ccc12", "note": "[Rho123, rhodamine 123]", "values": [{"measurement": "increase of Rho123 efflux (accumulation in absence vs presence of tariquidar)", "setting": "[1]", "result": "~ 7 fold"}, {"measurement": "vectorial transport in CETA (apical vs basolateral concentrations)", "setting": "[2]", "result": "significantly higher in the apical vs. basolateral chambers"}]}]}
